From ChEMBL document CHEMBL5038635, “Discovery of Salidroside-Derivated Glycoside Analogues as Novel Angiogenesis Agents to Treat Diabetic Hind Limb Ischemia” (J Med Chem, 2022) come the findings set out here.

Values after ≈ are worked out from the molar mass of the structure shown. Active and inactive are the calls of the source. The calls are words filed in the database; no cut-off is given here. Bounds are passed on as bounds.

Data set [1] addresses Hypoxia-inducible factor 1-alpha (Mus musculus) (UniProt Q61221). Description: Inhibition of HIF-1alpha in mouse C2C12 cells transfected with PDGF-B driven firefly luciferase gene assessed as transcriptional activity pretreated with compound for 12 hr followed by hypoxic condition for 24 hrs by dual luciferase reporter gene assay. The format is cell-based. The note with it: time 36.0 hrs.

Data set [2] has the same target. The experiment in a line: Inhibition of HIF-1alpha in mouse C2C12 cells transfected with HRE-driven firefly luciferase gene assessed as fold change in transcriptional activity at 300 uM pretreated with compound for 12 hr followed by hypoxic condition for 24 hrs by dual luciferase reporter gene assay. It is filed as cell-based. As to conditions: time 36.0 hrs.
In data set [3] the test system is C2C12. The experiment in a line: Apoptotic rate in hyperglycemia-treated mouse C2C12 cells assessed as early apoptotic cells at 30 uM by AnnexinV-FITC/PI staining based flow cytometric analysis (reference value: 7.10 %). The format is functional.
The subject of data set [4] is C2C12. The experiment in a line: Induction of proliferation of hyperglycemia-induced mouse C2C12 cell apoptosis assessed as decrease in Annexin V/PI-positive cells at 30 uM pretreated with compound under hyperglycemia condition for 12 hr followed by hypoxia for 24 hrs. The format is functional, cell-based. The note with it: time 36.0 hrs.
The nature of data set [5]: Water solubility of the compound by HPLC analysis.
A short description of data set [6]: Efflux ratio of Apparent permeability across basolateral to apical side over apical to basolateral side in human Caco-2 cells.
Data set [7] is described as follows: Permeability coefficient across apical to basolateral side in human Caco-2 cells by HPLC-UV analysis.
Data set [8] has as its system C2C12. Description: Apoptotic rate in hyperglycemia-treated mouse C2C12 cells assessed as early apoptotic cells at 15 uM by AnnexinV-FITC/PI staining based flow cytometric analysis (reference value: 7.10 %). It is filed as functional.
Data set [9] concerns C2C12. The experiment in a line: Angiogenic activity in mouse C2C12 cells assessed as reversal of hyperglycemia-induced reduction in total cell number at 30 uM measured after 24 hrs by EdU-incorporation assay. The format is functional, cell-based.
For data set [10], the system named is C2C12. The experiment in a line: Apoptotic rate in hyperglycemia-treated mouse C2C12 cells assessed as necrotic cells at 30 uM by AnnexinV-FITC/PI staining based flow cytometric analysis (reference value: 0.56 %). The format is functional.
Data set [11] in a line: Octanol/Water partition coefficient, log P of the compound by HPLC-UV analysis.
For data set [12], the system named is C2C12. The experiment in a line: Apoptotic rate in hyperglycemia-treated mouse C2C12 cells assessed as late apoptotic cells at 30 uM by AnnexinV-FITC/PI staining based flow cytometric analysis (reference value: 10.44 %). The format is functional.
The test system of data set [13] is C2C12. The experiment in a line: Angiogenic activity in mouse C2C12 cells assessed as accumulation PDGF-BB protein expression at 300 uM by Western blot analysis. The format is functional, cell-based.
Data set [14] deals with C2C12. Description: Apoptotic rate in hyperglycemia-treated mouse C2C12 cells assessed as viable cells at 30 uM by AnnexinV-FITC/PI staining based flow cytometric analysis (reference value: 81.90 %). It is filed as functional. The note with it: read-out: Activity.
In data set [15] the test system is C2C12. The experiment in a line: Induction of proliferation of hyperglycemia-induced mouse C2C12 cell apoptosis assessed as decrease in Annexin V/PI-positive cells at 15 uM pretreated with compound under hyperglycemia condition for 12 hr followed by hypoxia for 24 hrs. The format is functional, cell-based. The note with it: time 36.0 hrs.
In data set [16] the test system is C2C12. The experiment in a line: Angiogenic activity in mouse C2C12 cells assessed as reversal of hyperglycemia-induced reduction in total cell number at 300 uM measured after 36 hrs by EdU-incorporation assay. The format is functional, cell-based.
For data set [17], the system named is C2C12. The experiment in a line: Angiogenic activity in mouse C2C12 cells assessed as accumulation HIF-1alpha protein expression at 300 uM by Western blot analysis. The format is functional, cell-based.
The subject of data set [18] is C2C12. Description: Apoptotic rate in hyperglycemia-treated mouse C2C12 cells assessed as late apoptotic cells at 15 uM by AnnexinV-FITC/PI staining based flow cytometric analysis (reference value: 10.44 %). The format is functional.
The subject of data set [19] is C2C12. The experiment in a line: Induction of proliferation of hyperglycemia-induced mouse C2C12 cell death assessed as increase in number of EdU-positive cells at 15 uM pretreated with compound under hyperglycemia condition for 12 hr followed by hypoxia for 24 hrs. It is filed as functional, cell-based. The note with it: time 36.0 hrs.
Data set [20] deals with C2C12. Description: Induction of proliferation of hyperglycemia-induced mouse C2C12 cell death assessed as increase in number of EdU-positive cells at 7.5 to 300 uM pretreated with compound under hyperglycemia condition for 12 hr followed by hypoxia for 24 hrs. It is filed as functional, cell-based. The note with it: dose 7.5-300 µM, time 36.0 hrs.
The test system of data set [21] is C2C12. The experiment in a line: Angiogenic activity in mouse C2C12 cells assessed as accumulation VEGF-A protein expression at 300 uM by Western blot analysis. The format is functional, cell-based.
Data set [22] concerns C2C12. Description: Apoptotic rate in hyperglycemia-treated mouse C2C12 cells assessed as viable cells at 15 uM by AnnexinV-FITC/PI staining based flow cytometric analysis (reference value: 81.90 %). It is filed as functional. The note with it: read-out: Activity.
Data set [23] can be described thus: Dissociation constant, pKa of compound by UV-visible spectrometric method. It is filed as physicochemical.
Data set [24] has as its system C2C12. The experiment in a line: Angiogenic activity in mouse C2C12 cells assessed as reversal of hyperglycemia-induced reduction in total cell number at 7.5 uM measured after 36 hrs by EdU-incorporation assay. It is filed as functional, cell-based.
Data set [25] has as its system C2C12. The experiment in a line: Angiogenic activity in mouse C2C12 cells assessed as accumulation ANG1 protein expression at 300 uM by Western blot analysis. The format is functional, cell-based.
Data set [26] relates to C2C12. The experiment in a line: Apoptotic rate in hyperglycemia-treated mouse C2C12 cells assessed as necrotic cells at 15 uM by AnnexinV-FITC/PI staining based flow cytometric analysis (reference value: 0.56 %). The format is functional.
Data set [27] deals with C2C12. The experiment in a line: Angiogenic activity in mouse C2C12 cells assessed as reversal of hyperglycemia-induced reduction in total cell number at 100 uM measured after 36 hrs by EdU-incorporation assay. The format is functional, cell-based.
Data set [28] can be described thus: Permeability coefficient across basolateral to apical side in human Caco-2 cells by HPLC-UV analysis.
Data set [29] deals with C2C12. Description: Angiogenic activity in mouse C2C12 cells assessed as reversal of hyperglycemia-induced reduction in total cell number at 15 uM measured after 36 hrs by EdU-incorporation assay. The format is functional, cell-based.

Sequence of Hypoxia-inducible factor 1-alpha (Mus musculus) (Q61221 whole entry): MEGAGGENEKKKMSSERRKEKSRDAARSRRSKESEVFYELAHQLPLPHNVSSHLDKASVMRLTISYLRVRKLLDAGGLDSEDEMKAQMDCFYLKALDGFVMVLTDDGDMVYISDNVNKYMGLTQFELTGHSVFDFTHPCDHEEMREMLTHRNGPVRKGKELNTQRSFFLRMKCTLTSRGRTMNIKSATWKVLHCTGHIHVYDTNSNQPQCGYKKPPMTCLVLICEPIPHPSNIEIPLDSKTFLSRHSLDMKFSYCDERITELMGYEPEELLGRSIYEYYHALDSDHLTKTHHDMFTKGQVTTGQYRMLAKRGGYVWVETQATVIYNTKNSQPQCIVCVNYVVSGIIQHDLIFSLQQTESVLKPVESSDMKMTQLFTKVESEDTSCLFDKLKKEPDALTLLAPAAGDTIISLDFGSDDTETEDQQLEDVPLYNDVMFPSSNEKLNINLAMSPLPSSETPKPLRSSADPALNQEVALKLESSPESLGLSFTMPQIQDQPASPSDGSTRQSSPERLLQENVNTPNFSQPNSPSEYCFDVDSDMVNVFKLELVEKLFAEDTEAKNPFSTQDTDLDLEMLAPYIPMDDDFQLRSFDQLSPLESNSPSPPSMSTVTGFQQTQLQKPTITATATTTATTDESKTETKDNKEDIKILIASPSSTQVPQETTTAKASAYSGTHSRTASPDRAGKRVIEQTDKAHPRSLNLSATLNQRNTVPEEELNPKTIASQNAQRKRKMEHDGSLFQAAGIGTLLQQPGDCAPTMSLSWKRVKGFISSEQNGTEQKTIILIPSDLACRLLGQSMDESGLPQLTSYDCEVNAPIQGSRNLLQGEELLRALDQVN

Turning to `COc1ccc(-c2cccc(O[C@@H]3O[C@H](CO)[C@@H](O)[C@H](O)[C@H]3O)c2)cc1`, the inhibition entry in data set [1] is “Active”. Also, the fold change (FC) in [2] was determined as 2.5.

On to `COc1ccc(Cc2ccc(O[C@@H]3O[C@H](CO)[C@@H](O)[C@H](O)[C@H]3O)cc2)cc1`, for which the Activity with C2C12 [3] turned out to be 3.21%; in the data set on C2C12 [8], 5.4%; in the data set with C2C12 [10], 0.41%; with C2C12 [12] it was 7.14%; in the data set with C2C12 [18], 10.59%; with C2C12 [26], 0.49%. Moreover, the outcome with C2C12 [4], in the data set with C2C12 [15], with C2C12 [20] and in the data set on C2C12 [24] was inactive. For the same compound, in [5], the solubility was found to be 1320 µg/mL (≈ 3.51 mM). For the same compound, the efflux ratio in data set [6] was determined as 1.06. In data set [7], this compound yielded a Papp A→B of 1.68 ×10⁻⁶ cm/s. Also, the outcome in the data set on C2C12 [9], in the data set on C2C12 [16], with C2C12 [19], with C2C12 [27] and in the data set on C2C12 [29] was Active. Moreover, in [11], the logP turned out to be 1.02. The inhibition result (in data set [1]; with C2C12 [13]; with C2C12 [17]; in the data set with C2C12 [21]; in the data set with C2C12 [25]) was “Active” throughout. The viability at 30 µM with C2C12 [14] was 89.2%. Besides, the viability at 15 µM in the data set on C2C12 [22] stood at 83.5%. Also, the fold change (FC) in data set [2] was found to be 2.5. The compound further yielded a pKa in [23] of over 14. For the same compound, the Papp B→A in [28] was 1.78 ×10⁻⁶ cm/s.

For the compound `OC[C@H]1O[C@@H](CCCc2ccc(O)cc2)[C@H](O)[C@@H](O)[C@@H]1O`, the inhibition result in [1] is “inactive”.

Take `OC[C@H]1O[C@@H](OCCCc2ccc(O)cc2)[C@H](O)[C@@H](O)[C@@H]1O`: the fold change (FC) in data set [2] was 1.52.

With `OC[C@H]1O[C@@H](OCC2(c3ccc(O)cc3)CCC2)[C@H](O)[C@@H](O)[C@@H]1O`, in data set [1], the inhibition entry was “Active”. Further, the fold change (FC) in [2] worked out at 1.63.

For the compound `O=S1(=O)OC(c2ccc(O)cc2)(c2ccc(O)cc2)c2ccccc21` [PHENOLSULFONPHTHALEIN], in data set [7], the Papp A→B turned out to be 0.35 ×10⁻⁶ cm/s.

As for `COc1ccc(CCO[C@@H]2O[C@H](CO)[C@@H](O)[C@H](O)[C@H]2O)cc1`, in [1], the inhibition result was “Active”. For the same compound, the fold change (FC) in data set [2] amounted to 1.69.

For `C[C@H]1O[C@@H](O[C@H]2[C@@H](O)C[C@H](O[C@H]3[C@@H](O)C[C@H](O[C@H]4CC[C@@]5(C)[C@H](CC[C@@H]6[C@@H]5C[C@@H](O)[C@]5(C)[C@@H](C7=CC(=O)OC7)CC[C@]65O)C4)O[C@@H]3C)O[C@@H]2C)C[C@H](O)[C@@H]1O` [DIGOXIN], the efflux ratio in [6] worked out at 11.1. The Papp A→B in [7] is 1.33 ×10⁻⁶ cm/s. The Papp B→A in data set [28] was determined as 14.7 ×10⁻⁶ cm/s.

Regarding `COc1ccc(-c2ccc(O[C@@H]3O[C@H](CO)[C@@H](O)[C@H](O)[C@H]3O)cc2)cc1`, the inhibition result in data set [1] is “Active”. Further, in data set [2], the fold change (FC) amounted to 2.5.

For the compound `COc1ccc(Cc2ccccc2O[C@@H]2O[C@H](CO)[C@@H](O)[C@H](O)[C@H]2O)cc1` [SERGLIFLOZIN A], the concentration in solution in data set [5] (solubility) was 6710 µg/mL (≈ 17.8 mM). In data set [6], the efflux ratio came out at 1.04. The compound also showed a Papp A→B in data set [7] of 1.75 ×10⁻⁶ cm/s. In addition, the log partition coefficient (logP) in data set [11] worked out at 1.07. Further, the fold change (FC) in data set [2] stood at 0.78. Besides, the pKa in [23] is over 14. In data set [28], this compound showed a Papp B→A of 1.82 ×10⁻⁶ cm/s.

Consider `OC[C@H]1O[C@@H](Oc2ccc(Cc3ccc(O)cc3)cc2)[C@H](O)[C@@H](O)[C@@H]1O`, for which, in [5], the solubility turned out to be 1640 µg/mL (≈ 4.53 mM). The efflux ratio in [6] turned out to be 1.09. This compound also displayed a Papp A→B in data set [7] of 1.3 ×10⁻⁶ cm/s. Besides, in data set [11], the logP is 0.076. The compound also returned a pKa in [23] of 10.4. In addition, in data set [28], the Papp B→A turned out to be 1.42 ×10⁻⁶ cm/s.

In the case of `OC[C@H]1O[C@@H](OCCc2ccc(F)cc2)[C@H](O)[C@@H](O)[C@@H]1O`, in data set [1], the inhibition entry is “Active”. The fold change (FC) in [2] was 1.47.

With `OC[C@H]1O[C@@H](Oc2ccc(Cc3ccc(O)c(O)c3)cc2)[C@H](O)[C@@H](O)[C@@H]1O`, the “HIF-1alpha inhibition call (active/inactive)” value in data set [2] was “Active”.

As to `CC(C)(CO[C@@H]1O[C@H](CO)[C@@H](O)[C@H](O)[C@H]1O)c1ccc(O)cc1`, the fold change (FC) in data set [2] is 1.73.

`COc1ccc(C(C)(C)CO[C@@H]2O[C@H](CO)[C@@H](O)[C@H](O)[C@H]2O)cc1`: the inhibition entry in data set [1] was “Active”.

On to `OC[C@H]1O[C@@H](OCCc2ccccc2)[C@H](O)[C@@H](O)[C@@H]1O`, for which, in [1], the inhibition entry was “Active”. In addition, the fold change (FC) in data set [2] came to 1.76.
